{"source": "paper PMC11054274", "about": "“Dual Antitubercular and Antileishmanial Profiles of Quinoxaline Di-N-Oxides Containing an Amino Acidic Side Chain” (Pharmaceuticals, 2024)", "key": {"[1]": {"test_system": "Leishmania donovani promastigotes", "assay": "Promastigote susceptibility assay (resazurin), L. donovani", "type": "cell-based", "settings": "for IC50: Table S2, promastigotes, 48 h", "protocol": "(§1) The following species of Leishmania were used: L. donovani (MHOM/IN/80/DD8), which was purchased (ATCC, Manassas, VA, USA), and L. amazonensis (MHOM/Br/79/Maria), which was kindly provided by Prof. Alfredo Toraño (Instituto de Salud Carlos III, Madrid, Spain). Promastigotes were cultured in Schneider’s Insect Medium supplemented with 10% heat-inactivated Fetal Bovine Serum (FBS) (SIGMA-Merck, Madrid, Spain) and 1000 U/L of penicillin plus 100 mg/L of streptomycin in 25 mL culture flasks at 26 °C.\n(§2) The activity of the compounds on Leishmania promastigotes was performed according to the method previously reported by us. Briefly, promastigotes (2.5 × 10^5 parasites/well) were cultured in 96-well plastic plates. The compounds were dissolved in dimethylsulfoxide (DMSO). Serial dilutions at 1:2 of the test compounds in fresh culture medium were performed (100, 50, 25, 12.5, 6.25, 3.12, 1.56 and 0.78 µg/mL) in a final volume of 200 µL; the solutions were then added to the parasite suspension. After an incubation period of 48 h at 26 °C, a volume of 20 μL of 2.5 mM resazurin solution in PBS was added and the plates were incubated for 3 h under the same conditions. Finally, the Relative Fluorescence Unit (RFU) (535ex–590em nm wavelength) was determined in a fluorimeter (Infinite 200 Tecan i-Control). Growth inhibition (%) was calculated by 100—[(RFU treated wells—RFU signal-to-noise)/(RFU untreated—RFU signal-to-noise) × 100]. All tests were carried out in triplicate and the IC50 was calculated by probit analysis using SPSS 17.0 Statistics Software. Miltefosine (Sigma-Merck, Madrid, Spain) was used as the reference drug."}, "[2]": {"test_system": "Leishmania amazonensis amastigotes", "assay": "Intracellular amastigote assay in J774 macrophages, L. amazonensis", "type": "cell-based", "settings": "for L. amazonensis amastigote selectivity index (SI): SI = CC50 (J774 macrophages)/IC50", "protocol": "(§3) We performed an intracellular amastigote assay on L. amazonensis and L. donovani according to a fluorometric method reported by us. To carry out the in vitro macrophage infections, 5 × 10^4 cells were cultured in RPMI-1640 medium and then were infected with 5 × 10^5 promastigotes. In the L. donovani assays, the plates were incubated for 48 h at 37 °C, while in the L. amazonensis assays, they were incubated at 33 °C for the first 24 h and then the temperature was increased to 37 °C for the next 24 h. After, the culture medium was removed and the cells were washed with buffered RPMI-HEPES at pH 7.4 several times in order to eliminate the non-internalized promastigotes. A total of 100 µL of fresh medium tempered at 37 °C was added to the infected cells, which then were exposed to 100 µL of the test compounds in RPMI-1640 at different concentrations (100, 50, 25, 12.5, 6.25, 3.12, 1.56 and 0.78 µg/mL in a final volume of 200 µL) for 48 h at 37 °C. The culture medium was removed by centrifugation at 3500 rpm for 5 min (Centrifuge 5403 Eppendorf) and a lysis solution (0.02% sodium dodecyl sulfate in RPMI-HEPES) was added. After 20 min, the treated cells were harvested (centrifugation at 3500 rpm for 5 min at 4 °C) and the supernatants were replaced by 200 μL of fresh Schneider’s culture medium. The plates were then incubated at 26 °C for another 3 days to allow for the transformation of viable amastigotes into promastigotes and proliferation. Afterwards, 20 μL/well of 2.5 mM resazurin was added and incubated for another 3 h. Finally, URF was measured and IC50 was estimated as described above. All tests were carried out in triplicate. Miltefosine was used as the reference drug."}, "[3]": {"test_system": "Mycobacterium tuberculosis H37Rv", "assay": "In vitro activity against Mycobacterium tuberculosis H37Rv, microdilution AlamarBlue broth assay (BacTiter-Glo alternative read-out)", "type": "cell-based", "settings": "Table S1, Mtb H37Rv; for IC50: read-out: IC50, antibacterial activity against Mtb H37Rv; for IC90: read-out: IC90, antibacterial activity against Mtb H37Rv"}, "[4]": {"test_system": "Leishmania donovani amastigotes", "assay": "Intracellular amastigote assay in J774 macrophages, L. donovani", "type": "cell-based", "settings": "for IC50: Table S3, intracellular amastigotes, 48 h", "protocol": "as §3"}, "[5]": {"test_system": "Leishmania amazonensis promastigotes", "assay": "Promastigote susceptibility assay (resazurin), L. amazonensis", "type": "cell-based", "protocol": "as §1, §2"}, "J774 murine macrophages": {"test_system": "J774 murine macrophages", "assay": "Cytotoxicity assay on macrophages (resazurin)", "type": "cell-based", "settings": "24 h exposure, read-out: Toxicity against J774 macrophages CC50", "protocol": "(§4) J774 murine macrophages were grown in RPMI-1640 medium (Sigma) supplemented with 10% heat-inactivated FBS (30 min at 56 °C) (SIGMA-Merck), penicillin G (100 U/mL) and streptomycin (100 µg/mL). For the experiments, cells in the pre-confluence phase were harvested with trypsin. Cell cultures were maintained at 37 °C in a humidified environment with 5% CO2.\n(§5) Cell viability was evaluated using a modification with resazurin of the colorimetric method described previously. J774 macrophages were seeded (5 × 10^4 cells/well) in 96-well flat-bottom microplates with 100 µL of RPMI-1640 medium. The cells were allowed to adhere for 4 h at 37 °C in 5% CO2, then different concentrations of the test compounds in 100 µL of the medium were added and exposed for 24 h. Growth controls were also included. To evaluate cell viability, 20 µL of a 2.5 mM resazurin solution was added and the plates were returned to the incubator for another 3 h. The reduction in resazurin was determined by measuring the fluorescence intensity (excitation wavelength, 535 nm; emission wavelength, 590 nm). Each concentration was assayed three times. The medium and controls were used in each test as blanks. The cytotoxic effect of the compounds was defined as the 50% reduction in cell viability of treated culture cells with respect to the untreated culture (CC50)."}, "[6]": {"assay": "Cytotoxicity assay on macrophages (resazurin)", "type": "cell-based, murine", "settings": "mouse, J774 macrophages, 24 h exposure, read-out: Toxicity against J774 macrophages CC50", "protocol": "as §4, §5"}, "[7]": {"settings": "Table S3, intracellular amastigotes, 48 h, read-out: L. amazonensis IC50 (amastigote)"}, "[8]": {"settings": "Table S2, promastigotes, 48 h, read-out: L. amazonensis IC50 (promastigote)"}, "[9]": {"settings": "read-out: IC50 against L. amazonensis amastigotes"}, "[10]": {"settings": "SI = CC50 (J774 macrophages)/IC50"}}, "note": "Read-outs that look alike come from different tables or passages of the source.", "data": [{"compound": "COC(=O)CNC(=O)c1c(-c2cccc(Cl)c2)[n+]([O-])c2cc(OC)ccc2[n+]1[O-]", "note": "[Compound 4g, N-(6-Methoxy-1,4-dioxide-3-(3-chlorophenyl)quinoxaline-2-carbonyl)glycine methyl ester]", "values": [{"measurement": "IC50", "setting": "[1]", "value": "40 ± 6.7", "unit": "µM"}, {"measurement": "IC50", "setting": "[2]; [7]", "value": "23.2 ± 4.1", "unit": "µM"}, {"measurement": "IC50", "setting": "[3]", "value": 50, "unit": "µM"}, {"measurement": "IC90", "setting": "[3]", "value": 71.9, "unit": "µM"}, {"measurement": "IC50", "setting": "[4]", "value": "77.5 ± 6.2", "unit": "µM"}, {"measurement": "IC50", "setting": "[5]; [8]", "value": "112 ± 13.7", "unit": "µM"}]}, {"compound": "COC(=O)CNC(=O)c1c(-c2ccccc2C)[n+]([O-])c2cc(OC)ccc2[n+]1[O-]", "note": "[Compound 4k, N-(6-Methoxy-1,4-dioxide-3-(2-methylphenyl)quinoxaline-2-carbonyl)glycine methyl ester]", "values": [{"measurement": "IC50", "setting": "[1]", "value": "23.9 ± 2.2", "unit": "µM"}, {"measurement": "IC50", "setting": "[2]; [9]", "value": 7.2, "unit": "µM"}, {"measurement": "CC50", "setting": "J774 murine macrophages; Table S2", "value": "330 ± 75.5", "unit": "µM"}, {"measurement": "IC50", "setting": "[3]", "value": 25.9, "unit": "µM"}, {"measurement": "IC90", "setting": "[3]", "value": 44.6, "unit": "µM"}, {"measurement": "IC50", "setting": "[4]", "value": "72.2 ± 18.6", "unit": "µM"}, {"measurement": "IC50", "setting": "[5]; [8]", "value": "117 ± 14.3", "unit": "µM"}]}, {"compound": "COC(=O)CNC(=O)c1c(-c2ccc(F)cc2)[n+]([O-])c2cc(C)ccc2[n+]1[O-]", "note": "[Compound 4m, N-(6-Methyl-1,4-dioxide-3-(4-fluorophenyl)-quinoxaline-2-carbonyl)glycine methyl ester]", "values": [{"measurement": "IC50", "setting": "[1]", "value": "84.8 ± 8.9", "unit": "µM"}, {"measurement": "IC50", "setting": "[2]; [9]", "value": 74.4, "unit": "µM"}, {"measurement": "CC50", "setting": "J774 murine macrophages; Table S2", "value": 454, "unit": "µM"}, {"measurement": "CC50", "setting": "J774 murine macrophages; Table S3", "value": 454, "unit": "µM"}, {"measurement": "IC50", "setting": "[3]", "value": 18.3, "unit": "µM"}, {"measurement": "IC90", "setting": "[3]", "value": 36.5, "unit": "µM"}, {"measurement": "IC50", "setting": "[4]", "value": "285 ± 115", "unit": "µM"}, {"measurement": "IC50", "setting": "[5]; [8]", "value": "62.8 ± 1.6", "unit": "µM"}]}, {"compound": "CCCCCCCCCCCCCCCCOP(=O)([O-])OCC[N+](C)(C)C", "note": "[Miltefosine, reference compound]", "values": [{"measurement": "IC50", "setting": "[1]; Leishmania donovani", "value": "0.2 ± 0.02", "unit": "µM"}, {"measurement": "L. donovani promastigote selectivity index (SI)", "setting": "[1]; [10]", "value": 680.5}, {"measurement": "IC50", "setting": "[2]; Leishmania amazonensis, J774, Table S3, intracellular amastigotes, 48 h, read-out: L. amazonensis IC50 (amastigote)", "value": "47.6 ± 7.4", "unit": "µM"}, {"measurement": "IC50", "setting": "[2]; Leishmania amazonensis, J774, read-out: IC50 against L. amazonensis amastigotes", "value": 136, "unit": "µM"}, {"measurement": "L. amazonensis amastigote selectivity index (SI)", "setting": "[2]", "value": 2.9}, {"measurement": "L. amazonensis amastigote selectivity index (SI)", "setting": "[2]; listed as miltefosine", "value": 2.87}, {"measurement": "CC50 at 24 h", "setting": "[6]; Table S2", "value": "136 ± 10.3", "unit": "µM"}, {"measurement": "CC50 at 24 h", "setting": "[6]; Table S3", "value": 136, "unit": "µM"}, {"measurement": "IC50", "setting": "[4]; Leishmania donovani, J774", "value": 7.1, "unit": "µM"}, {"measurement": "L. donovani amastigote selectivity index (SI)", "setting": "[4]; [10]", "value": 19.1}, {"measurement": "IC50", "setting": "[5]; Leishmania amazonensis, read-out: IC50 against L. amazonensis (promastigote)", "value": 47.9, "unit": "µM"}, {"measurement": "L. amazonensis promastigote selectivity index (SI)", "setting": "[5]; [10]", "value": 2.8}]}, {"compound": "N-(1,4-Dioxide-3-((4-fluorophenyl)quinoxaline-2-carbonyl)glycine methyl ester [Compound 4d]", "values": [{"measurement": "IC50", "setting": "[1]", "value": "165 ± 10.2", "unit": "µM"}, {"measurement": "IC50", "setting": "[2]; [9]", "value": 9.8, "unit": "µM"}, {"measurement": "CC50", "setting": "J774 murine macrophages; Table S2", "value": 539, "unit": "µM"}, {"measurement": "CC50", "setting": "J774 murine macrophages; Table S3", "value": 539, "unit": "µM"}, {"measurement": "IC50", "setting": "[3]", "value": 28.6, "unit": "µM"}, {"measurement": "IC90", "setting": "[3]", "value": 47.7, "unit": "µM"}, {"measurement": "IC50", "setting": "[4]", "value": "234 ± 5.9", "unit": "µM"}, {"measurement": "IC50", "setting": "[5]; [8]", "value": "125 ± 1.43", "unit": "µM"}]}, {"compound": "N-(6-Methoxy-1,4-dioxide-3-(4-florophenyl)quinoxaline-2-carbonyl)glycine methyl ester [Compound 4i]", "values": [{"measurement": "IC50", "setting": "[1]", "value": "46.9 ± 14.2", "unit": "µM"}, {"measurement": "IC50", "setting": "[2]; [7]", "value": "12.9 ± 1.7", "unit": "µM"}, {"measurement": "CC50", "setting": "J774 murine macrophages; Table S2", "value": "379 ± 49.9", "unit": "µM"}, {"measurement": "IC50", "setting": "[3]", "value": 47.2, "unit": "µM"}, {"measurement": "IC90", "setting": "[3]", "value": 66.5, "unit": "µM"}, {"measurement": "IC50", "setting": "[4]", "value": "71 ± 11", "unit": "µM"}, {"measurement": "IC50", "setting": "[5]; [8]", "value": "117 ± 8", "unit": "µM"}]}, {"compound": "N-(6-Methoxy-1,4-dioxide-3-(4-trifloromethylphenyl)quinoxaline-2-carbonyl)glycine methyl ester [Compound 4h]", "values": [{"measurement": "IC50", "setting": "[1]", "value": "25.3 ± 1.55", "unit": "µM"}, {"measurement": "IC50", "setting": "[2]; [7]", "value": "20.9 ± 4", "unit": "µM"}, {"measurement": "CC50", "setting": "J774 murine macrophages; Table S2", "value": 554, "unit": "µM"}, {"measurement": "CC50", "setting": "J774 murine macrophages; Table S3", "value": 554, "unit": "µM"}, {"measurement": "IC50", "setting": "[3]", "value": 8.46, "unit": "µM"}, {"measurement": "IC90", "setting": "[3]", "value": 12.4, "unit": "µM"}, {"measurement": "IC50", "setting": "[4]", "value": "39.5 ± 7.5", "unit": "µM"}, {"measurement": "IC50", "setting": "[5]; [8]", "value": "122 ± 9.9", "unit": "µM"}]}]}
